In PMC6429183, “Identification of Compounds That Inhibit Estrogen-Related Receptor Alpha Signaling Using High-Throughput Screening Assays” (Molecules, 2019):
Several values for one entry are separate records, joined by “and”; a condition that tells them apart may be missing. Equal entries are not always repeated. Structures can show the parent of a compound that is named as a salt. Where two headings read alike, the source gives them in different places.

Experiments:
[1] = test system: ERR reporter HEK293 cells; assay: CellTiter-Fluor cell viability assay multiplexed with ERR reporter assay; type: cell-based; conditions: for EC50: Homo sapiens, HEK293
Method: (§1) ERR or PGC/ERR reporter HEK293 cells suspended in culture medium without puromycin were dispensed at 2500 cells/5 μL/well in tissue culture–treated 1536-well white assay plates (Greiner Bio-One North America, Monroe, NC, USA) using a Thermo Scientific Multidrop Combi (ThermoFisher Scientific, Inc.). […] After the cells were incubated at 37 °C with 5% CO2 for 6 h, 23 nL of compounds or control, XTC790, was transferred into the assay plates using a Wako Pintool station (Wako Automation, San Diego, CA, USA). The assay plates were incubated at 37 °C for 18 h, followed by the addition of 5 μL ONE-Glo luciferase reagent (Promega, Madison, WI, USA) using a Flying Reagent Dispenser (Aurora Discovery, Carlsbad, CA, USA). After 30 min of incubation at room temperature, the luminescence intensity of the assay plates was quantified using a ViewLux plate reader (PerkinElmer, Shelton, CT, USA). The assays were performed three times for each compound concentration. These ERR and PGC/ERR reporter assays were multiplexed with the CellTiter-Fluor Cell Viability Assay (Promega), a fluorescence-based cell viability assay, to assess compound cytotoxicity.
The qHTS data were analyzed as described previously. […] The DMSO-only compound plates at the beginning and end of the compound plate stack were used to correct the data set by applying an in-house pattern correction algorithm. The half maximum inhibition values (IC50) for each compound and maximum response (efficacy) values were obtained by fitting the concentration-response curves of each compound to a four-parameter Hill equation [91]. […] For each reading, the activity outcome of a test compound was first categorized by the average curve rank from the triplicate runs and the reproducibility calls. The final activity outcome of each compound was based on the ERR antagonist readout activity and cell viability counter screen.

[2] = test system: PGC/ERR reporter HEK293 cells; assay: CellTiter-Fluor cell viability assay multiplexed with PGC/ERR reporter assay; type: cell-based; conditions: for EC50: Homo sapiens; for PGC/ERR-HEK293 Follow-Up Viability EC50: follow-up screen; for PGC/ERR-HEK293 Primary Viability EC50: primary qHTS
Method: as §1
The qHTS data were analyzed as described previously. Each titration point was normalized relative to the positive control compound (XCT790 = −100%) and DMSO-only wells (0%) according to the following equation: % Activity = [(Vcompound − VDMSO)/(VDMSO − Vpos)] × 100, where Vcompound denotes the compound well values, Vpos denotes the median value of the positive control wells, and VDMSO denotes the median values of the DMSO-only wells. The DMSO-only compound plates at the beginning and end of the compound plate stack were used to correct the data set by applying an in-house pattern correction algorithm. The half maximum inhibition values (IC50) for each compound and maximum response (efficacy) values were obtained by fitting the concentration-response curves of each compound to a four-parameter Hill equation [91]. Compounds were designated as Class 1–4 according to the type of concentration–response curve observed. For each reading, the activity outcome of a test compound was first categorized by the average curve rank from the triplicate runs and the reproducibility calls. The final activity outcome of each compound was based on the ERR antagonist readout activity and cell viability counter screen.

COX8α = assay: qRT-PCR mRNA expression of ERR downstream gene COX8α; type: cell-based; conditions: ERR reporter cells, vs GAPDH, DMSO = 0%
Method: (§2) Total RNA was isolated from treated ERR reporter cells using an RNeasy Mini Kit (Qiagen, Germantown, MD, USA), homogenized using a QIAshredder (Qiagen), and reverse transcribed with a High-Capacity RNA-to-cDNA™ Kit (ThermoFisher Scientific, Inc.) following the manufacturers’ instructions. Expression of ERRα, COX8α, IDH3α, PPARα, COX4I1, and cytochrome c genes was normalized against GAPDH. All primers were purchased from ThermoFisher Scientific, Inc. Real-time PCR assays were performed in 384-well plates on a QuantStudio 5 (Applied Biosystems, Foster City, CA, USA) with TaqMan™ Gene Expression Master Mix (ThermoFisher Scientific, Inc.). Induction values were calculated using the equation: Fold = 2^ΔΔCt, where ΔCt represents the differences in cycle threshold numbers between each of the target genes and GAPDH, and ΔΔCt represents the relative change in these differences between control and treatment groups. Experimental data are presented as a mean of triplicate determinations ± SD. Statistical comparisons were made by t-test, while the statistical significance was set at p values of <0.05 (light blue), <0.01 (medium blue), and <0.001 (dark blue).

IDH3α = assay: qRT-PCR mRNA expression of ERR downstream gene IDH3α; type: cell-based; conditions: ERR reporter cells, vs GAPDH, DMSO = 0%
Method: as §2

cytochrome c = assay: qRT-PCR mRNA expression of ERR downstream gene cytochrome c; type: cell-based; conditions: ERR reporter cells, vs GAPDH, DMSO = 0%
Method: as §2

[3] = biological target: T1, ERRα with PGC-1α (PGC/ERR pathway) (Homo sapiens, UniProt P11474); assay: PGC/ERR reporter (luciferase) qHTS assay, PGC/ERR-HEK293; conditions: for PGC/ERR-HEK293 Follow-Up Efficacy / PGC/ERR-HEK293 Primary Efficacy: negative = antagonism, positive = agonism
T1 sequence (P11474 1-423): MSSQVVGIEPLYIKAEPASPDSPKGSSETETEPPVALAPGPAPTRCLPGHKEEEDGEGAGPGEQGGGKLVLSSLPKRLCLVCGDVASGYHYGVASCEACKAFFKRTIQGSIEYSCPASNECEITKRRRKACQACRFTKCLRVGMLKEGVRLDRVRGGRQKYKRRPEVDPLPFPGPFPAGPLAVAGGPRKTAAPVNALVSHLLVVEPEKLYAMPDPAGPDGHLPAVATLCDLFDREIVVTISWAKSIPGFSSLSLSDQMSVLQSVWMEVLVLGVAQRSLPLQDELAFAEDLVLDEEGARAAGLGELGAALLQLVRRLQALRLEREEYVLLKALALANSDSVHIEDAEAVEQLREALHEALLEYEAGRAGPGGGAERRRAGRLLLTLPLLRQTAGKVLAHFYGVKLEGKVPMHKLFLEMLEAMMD

[4] = biological target: T2, estrogen-related receptor alpha (ERRα) (Homo sapiens, UniProt P11474); assay: ERR reporter (luciferase) antagonist qHTS assay, ERR-HEK293; conditions: for ERR-HEK293 Follow-Up Efficacy: follow-up screen; for ERR-HEK293 Follow-Up Efficacy / ERR-HEK293 Primary Efficacy: relative to XCT790 = −100%; for ERR-HEK293 Primary Efficacy: primary qHTS, DMSO = 0%
T2 sequence (P11474 1-423): T1 sequence (P11474 1-423)
Method: (§3) The ERR reporter HEK293 cells were cultured in high glucose DMEM medium (ThermoFisher Scientific, Inc., Waltham, MA, USA) supplemented with 10% fetal bovine serum (FBS; ThermoFisher Scientific, Inc.), 4 mM of L-glutamine (ThermoFisher Scientific, Inc.), 1 mM of sodium pyruvate (ThermoFisher Scientific, Inc.), 100 U/mL of penicillin and 100 mg/mL of streptomycin (ThermoFisher Scientific, Inc.). PGC/ERR reporter HEK293 cells were cultured in the same medium as the ERR reporter HEK293 cells with an additional 1 μg/mL puromycin (ThermoFisher Scientific, Inc.) as the selection marker for PGC-1α expression.
(§4) The DMSO-only compound plates at the beginning and end of the compound plate stack were used to correct the data set by applying an in-house pattern correction algorithm [90]. The half maximum inhibition values (IC50) for each compound and maximum response (efficacy) values were obtained by fitting the concentration-response curves of each compound to a four-parameter Hill equation [91]. […] For each reading, the activity outcome of a test compound was first categorized by the average curve rank from the triplicate runs and the reproducibility calls. The final activity outcome of each compound was based on the ERR antagonist readout activity and cell viability counter screen.

[5] = biological target: T2, estrogen-related receptor alpha (ERRα)
Method: as §3, §4

[6] = biological target: T1, ERRα with PGC-1α (PGC/ERR pathway)
[7] = follow-up screen, viability, read-out: ERR-HEK293 Follow-Up Viability EC50 (converted)
[8] = PGC/ERR-HEK293 Follow-Up EC50, follow-up screen, mean ± SD, triplicate
[9] = PGC/ERR-HEK293 Primary EC50, primary qHTS, 18 h, mean ± SD, triplicate
[10] = ERR-HEK293 Follow-Up EC50, follow-up (confirmation) screen, mean ± SD, triplicate
[11] = ERR-HEK293 Primary EC50, primary qHTS, 18 h, 15 concentrations, mean ± SD, triplicate
[12] = primary qHTS, viability counter screen

Row | SMILES | EC50 [3, 8] [nM] | EC50 [3, 9] [nM] | PGC/ERR-HEK293 Follow-Up Efficacy ([3]; follow-up screen) [%] | PGC/ERR-HEK293 Primary Efficacy ([3]; primary qHTS) | EC50 [4, 10] [nM] | EC50 [4, 11] [nM] | ERR-HEK293 Follow-Up Efficacy [4] [%] | ERR-HEK293 Primary Efficacy [4] [%] | ERR-HEK293 Follow-Up Viability EC50 ([1]; follow-up screen, viability) | ERR-HEK293 Primary Viability EC50 [1, 12] | PGC/ERR-HEK293 Follow-Up Viability EC50 [2] | PGC/ERR-HEK293 Primary Viability EC50 [2] | other results
1 | COc1ccc2cc3[n+](cc2c1OC)CCc1cc2c(cc1-3)OCO2 [Berberine] | 8930 ± 4010 | 6130 ± 1710 | −87.4 ± 20.8 | −77.3 ± 14.6% | 3290 ± 2270 | 3160 ± 713 | −92.0 ± 16.0 | −88.4 ± 7.45 | – | – | – | – | EC50 [1, 7]: 12700 nM; EC50 ([1]; primary qHTS, viability counter screen, read-out: ERR-HEK293 Primary Viability EC50 (converted)): 12800 nM; EC50 ([2]; HEK293, follow-up screen, read-out: PGC/ERR-HEK293 Follow-Up Viability EC50 (converted)): 17300 nM; EC50 ([2]; HEK293, primary qHTS, read-out: PGC/ERR-HEK293 Primary Viability EC50 (converted)): 17300 nM; Percent inhibition of mRNA gene expression, COX8α (COX8α; 20 µM): 5.15 ± 0.17%; Percent inhibition of mRNA gene expression, IDH3α (IDH3α; 20 µM): 15.1 ± 2.97%; Percent inhibition of mRNA gene expression, Cytochrome C (cytochrome c; 20 µM): 46.2 ± 2.61%; activity in the ERR/PGC assay ([3]; in words): antagonism; activity in the ERR assay ([4]; in words): potent antagonists
2 | Nc1ncn([C@H]2C[C@H](O)[C@@H](CO)O2)c(=O)n1 [Decitabine] | – | – | – | – | – | – | – | – | – | – | – | – | Percent inhibition of mRNA gene expression, IDH3α (IDH3α; 2 µM): 5.79 ± 45.6%
3 | Cc1nn(C)c(Oc2ccccc2)c1C=NOCc1ccc(C(=O)OC(C)(C)C)cc1 [Fenpyroximate] | 18.6 ± 21 | 8.75 ± 0.572 | −56.2 ± 10.5 | −36.8% and −36.8 ± 2.17% | 6.99 ± 3.28 | 4.52 ± 0.577 | −89.6 ± 6.08 | −67.1 ± 9.31 | – | – | – | – | Percent inhibition of mRNA gene expression, Cytochrome C (cytochrome c; 7.5 nM): 5.28 ± 4.56%; EC50 ([3]; potency, ERR/PGC antagonist assay, primary screen): 8.8 nM; EC50 ([4]; potency, ERR antagonist assay, primary screen): 4.5 nM
4 | CO/N=C(/C1=NOCCO1)c1ccccc1Oc1ncnc(Oc2ccccc2Cl)c1F [Fluoxastrobin] | – | – | – | – | – | – | – | – | – | – | – | – | Percent inhibition of mRNA gene expression, IDH3α (IDH3α; 7 µM): 13.3 ± 2.44%; Percent inhibition of mRNA gene expression, Cytochrome C (cytochrome c; 7 µM): 25.5 ± 7.81%
5 | CC[C@@]1(O)C(=O)OCc2c1cc1n(c2=O)Cc2c-1nc1ccccc1c2/C=N/OC(C)(C)C [Gimatecan] | – | – | −130 ± 20.6 | −115 ± 2.20% | – | – | −145 ± 16.0 | −117 ± 14.5 | Inactive | Inactive | Inactive | Inactive | EC50 ([3]; PGC/ERR-HEK293 Follow-Up EC50): 3340 nM; EC50 ([3]; PGC/ERR-HEK293 Primary EC50): 2530 nM; EC50 ([4]; ERR-HEK293 Follow-Up EC50): 44.2 nM; EC50 ([4]; ERR-HEK293 Primary EC50): 49.7 nM
6 | CO/C=C(/C(=O)OC)c1ccccc1COc1cccc(C(F)(F)F)n1 [Picoxystrobin] | 4190 ± 2970 | 2790 ± 2400 | – | – | 3420 ± 393 | 807 ± 279 | – | – | – | Inactive | Inactive | Inactive | EC50 [1, 7]: 32100 nM; ERR-HEK293 Follow-Up Efficacy [5]: −86.7 ± 15.8%; ERR-HEK293 Primary Efficacy [5]: −83.9 ± 10.6%; PGC/ERR-HEK293 Follow-Up Efficacy [6]: −43.6 ± 14.2%; PGC/ERR-HEK293 Primary Efficacy [6]: −44.2 ± 4.37%
7 | Nc1ccc2cc3ccc(N)cc3nc2c1 [Proflavin hemisulfate] | – | – | – | – | – | – | – | – | – | – | – | – | Percent inhibition of mRNA gene expression, COX8α (COX8α; 3 µM): 34.8 ± 26.7%; Percent inhibition of mRNA gene expression, IDH3α (IDH3α; 3 µM): 24.9 ± 20.6%; Percent inhibition of mRNA gene expression, Cytochrome C (cytochrome c; 3 µM): 20.6 ± 8.69%
8 | CC[C@@]1(O)C(=O)OCc2c1cc1n(c2=O)Cc2cc3c(CN(C)C)c(O)ccc3nc2-1 [Topotecan hydrochloride] | 5260 | 14100 ± 1150 | −78.8 ± 7.20 | −69.1 ± 5.82% | 722 ± 285 | 1240 ± 83.7 | −140 ± 24.4 | −127 ± 11.8 | Inactive | Inactive | Inactive | Inactive | ERR-HEK293 Primary Efficacy ([4]; listed as topotecan): −127%
9 | CON=C(C(=O)OC)c1ccccc1CON=C(C)c1cccc(C(F)(F)F)c1 [Trifloxystrobin] | – | – | – | – | – | – | – | – | – | – | – | – | Percent inhibition of mRNA gene expression, COX8α (COX8α; 0.5 µM): 38.4 ± 17.2%; Percent inhibition of mRNA gene expression, IDH3α (IDH3α; 0.5 µM): 10.4 ± 0.21%
10 | O=c1[nH]c(=O)n([C@H]2C[C@H](O)[C@@H](CO)O2)cc1C(F)(F)F [Trifluridine] | – | – | – | – | 1750 ± 314 | 875 ± 59.3 | −67.7 ± 6.20 | −51.8 ± 5.77 | Inactive | Inactive | Inactive Inactive | Inactive Inactive | Percent inhibition of mRNA gene expression, COX8α (COX8α; 1 µM): 43.2 ± 21.8%; PGC/ERR-HEK293 Follow-Up EC50 ([3]; follow-up screen, mean ± SD, triplicate): Inactive Inactive; PGC/ERR-HEK293 Primary EC50 ([3]; primary qHTS, 18 h, mean ± SD, triplicate): Inactive Inactive
